The values that follow come from patent US20230364070A1, “PYRROLO[3,2-C]PYRIDIN-4-ONE DERIVATIVES USEFUL IN THE TREATMENT OF CANCER” (Scorpion Therapeutics, Inc., priority 2020, published 2023).

What all share (format): cell-based
Test [1] addresses T1, Ba/F3 cells with EGFR exon 20 ASV Ins V769_D770 (Homo sapiens, UniProt P00533, INS769ASV).
T1 construct: expressed in transfected cells; host or cells: Ba/F3 (murine pro-B cells), retroviral transduction, puromycin selection, IL3-independent pool
The experiment in a line: EGFR activity: Ba/F3 cell viability (CellTiter-Glo, 72 h), EGFR exon 20 ASV insertion. The settings on record: EGFR exon 20 ASV Ins V769_D770, cell viability, read-out: BaF3 ASV IC50. Background: ATP-based viability assays read luminescence as a measure of living cells.

The target of another test is T2, Ba/F3 cells with EGFR WT (Homo sapiens, UniProt P00533).
T2 construct: expressed in transfected cells; host or cells: Ba/F3 (murine pro-B cells), retroviral transduction, puromycin selection, maintained with EGF
The experiment in a line: EGFR activity: Ba/F3 cell viability (CellTiter-Glo, 72 h), EGFR WT. As to conditions: read-out: BaF3 WT IC50.

The target in test [2] is T3, pEGFR in Ba/F3 cells expressing EGFR exon 20 ASV Ins V769_D770 (Homo sapiens, UniProt P00533, INS769ASV).
T3 construct: expressed in transfected cells; host or cells: Ba/F3 (murine pro-B cells), retroviral transduction, puromycin selection, IL3-independent pool
In words: Inhibitor activity on EGFR phosphorylation (pEGFR AlphaLISA, 2 h), Ba/F3 EGFR exon 20 ASV insertion. The settings on record: Ba/F3 EGFR exon 20 ASV Ins V769_D770.

For test [3], the target named is T4, pEGFR in Ba/F3 cells expressing EGFR exon 20 NPG Ins D770_N771 (Homo sapiens, UniProt P00533, INS770NPG).
T4 construct: expressed in transfected cells; host or cells: Ba/F3 (murine pro-B cells), retroviral transduction, puromycin selection, IL3-independent pool
The experiment in a line: Inhibitor activity on EGFR phosphorylation (pEGFR AlphaLISA, 2 h), Ba/F3 EGFR exon 20 NPG insertion. As to conditions: Ba/F3 EGFR exon 20 NPG Ins D770_N771. For orientation: Bead proximity is the source of the signal in Alpha formats.

For test [4], the target named is T5, Ba/F3 cells with EGFR exon 20 NPG Ins D770_N771 (Homo sapiens, UniProt P00533, INS770NPG).
T5 construct: expressed in transfected cells; host or cells: Ba/F3 (murine pro-B cells), retroviral transduction, puromycin selection, IL3-independent pool
The experiment in a line: EGFR activity: Ba/F3 cell viability (CellTiter-Glo, 72 h), EGFR exon 20 NPG insertion. The settings on record: EGFR exon 20 NPG Ins D770_N771, cell viability, read-out: BaF3 NPG IC50.

Another test concerns the target T6, pEGFR in CUTO14 cells (Homo sapiens, UniProt P00533, DUP767-769).
T6 construct: endogenous in cells; host or cells: CUTO14 cells
The experiment in a line: Inhibitor activity on EGFR phosphorylation (pEGFR AlphaLISA, 2 h), CUTO14 cells. The method, then:
CUTO14 cells were obtained from Dr. Robert C. Doebele at the University of Colorado.
Shake 350 rpm for 1 hr in the dark • 3.4 Prepare donor mix under low light conditions prior to use. Dispense 5 μL of donor mix to all the wells. Mix well on the shaker, seal and wrap in aluminum foil and incubate 1.5 hrs at room temperature in the dark • 3.5 Transfer 18.5 μL mixture to OptiPlate 384, and read using an Envision.

T2 sequence (P00533 25-1210): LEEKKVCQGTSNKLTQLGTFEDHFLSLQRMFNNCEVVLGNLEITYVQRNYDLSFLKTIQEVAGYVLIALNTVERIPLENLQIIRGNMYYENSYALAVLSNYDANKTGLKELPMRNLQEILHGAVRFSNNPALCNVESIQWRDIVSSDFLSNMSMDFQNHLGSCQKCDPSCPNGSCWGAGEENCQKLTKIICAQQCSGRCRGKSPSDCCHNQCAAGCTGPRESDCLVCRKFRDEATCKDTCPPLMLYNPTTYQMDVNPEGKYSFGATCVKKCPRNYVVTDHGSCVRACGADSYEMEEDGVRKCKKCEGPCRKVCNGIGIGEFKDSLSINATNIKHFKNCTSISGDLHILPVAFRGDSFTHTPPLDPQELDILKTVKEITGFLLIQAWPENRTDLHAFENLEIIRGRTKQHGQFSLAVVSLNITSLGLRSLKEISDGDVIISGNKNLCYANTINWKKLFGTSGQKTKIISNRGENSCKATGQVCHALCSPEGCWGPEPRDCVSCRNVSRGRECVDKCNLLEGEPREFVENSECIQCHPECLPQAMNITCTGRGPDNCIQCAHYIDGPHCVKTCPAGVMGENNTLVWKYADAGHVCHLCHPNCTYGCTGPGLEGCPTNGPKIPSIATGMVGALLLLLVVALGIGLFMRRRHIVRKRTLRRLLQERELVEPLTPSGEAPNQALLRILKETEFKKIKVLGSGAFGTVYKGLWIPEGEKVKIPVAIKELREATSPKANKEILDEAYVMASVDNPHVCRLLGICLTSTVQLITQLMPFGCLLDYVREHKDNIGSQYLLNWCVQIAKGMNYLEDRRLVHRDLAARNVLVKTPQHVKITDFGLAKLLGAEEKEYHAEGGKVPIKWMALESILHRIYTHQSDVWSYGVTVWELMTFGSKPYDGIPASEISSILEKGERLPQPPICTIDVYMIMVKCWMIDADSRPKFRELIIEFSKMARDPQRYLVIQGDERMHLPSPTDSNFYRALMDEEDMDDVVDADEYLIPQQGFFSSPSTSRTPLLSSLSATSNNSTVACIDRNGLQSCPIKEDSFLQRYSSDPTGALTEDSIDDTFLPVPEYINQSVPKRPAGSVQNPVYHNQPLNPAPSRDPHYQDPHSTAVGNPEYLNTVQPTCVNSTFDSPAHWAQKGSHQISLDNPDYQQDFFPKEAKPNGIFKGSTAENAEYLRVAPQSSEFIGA
T4 sequence (P00533 with tags, fused parts or gaps INS770NPG): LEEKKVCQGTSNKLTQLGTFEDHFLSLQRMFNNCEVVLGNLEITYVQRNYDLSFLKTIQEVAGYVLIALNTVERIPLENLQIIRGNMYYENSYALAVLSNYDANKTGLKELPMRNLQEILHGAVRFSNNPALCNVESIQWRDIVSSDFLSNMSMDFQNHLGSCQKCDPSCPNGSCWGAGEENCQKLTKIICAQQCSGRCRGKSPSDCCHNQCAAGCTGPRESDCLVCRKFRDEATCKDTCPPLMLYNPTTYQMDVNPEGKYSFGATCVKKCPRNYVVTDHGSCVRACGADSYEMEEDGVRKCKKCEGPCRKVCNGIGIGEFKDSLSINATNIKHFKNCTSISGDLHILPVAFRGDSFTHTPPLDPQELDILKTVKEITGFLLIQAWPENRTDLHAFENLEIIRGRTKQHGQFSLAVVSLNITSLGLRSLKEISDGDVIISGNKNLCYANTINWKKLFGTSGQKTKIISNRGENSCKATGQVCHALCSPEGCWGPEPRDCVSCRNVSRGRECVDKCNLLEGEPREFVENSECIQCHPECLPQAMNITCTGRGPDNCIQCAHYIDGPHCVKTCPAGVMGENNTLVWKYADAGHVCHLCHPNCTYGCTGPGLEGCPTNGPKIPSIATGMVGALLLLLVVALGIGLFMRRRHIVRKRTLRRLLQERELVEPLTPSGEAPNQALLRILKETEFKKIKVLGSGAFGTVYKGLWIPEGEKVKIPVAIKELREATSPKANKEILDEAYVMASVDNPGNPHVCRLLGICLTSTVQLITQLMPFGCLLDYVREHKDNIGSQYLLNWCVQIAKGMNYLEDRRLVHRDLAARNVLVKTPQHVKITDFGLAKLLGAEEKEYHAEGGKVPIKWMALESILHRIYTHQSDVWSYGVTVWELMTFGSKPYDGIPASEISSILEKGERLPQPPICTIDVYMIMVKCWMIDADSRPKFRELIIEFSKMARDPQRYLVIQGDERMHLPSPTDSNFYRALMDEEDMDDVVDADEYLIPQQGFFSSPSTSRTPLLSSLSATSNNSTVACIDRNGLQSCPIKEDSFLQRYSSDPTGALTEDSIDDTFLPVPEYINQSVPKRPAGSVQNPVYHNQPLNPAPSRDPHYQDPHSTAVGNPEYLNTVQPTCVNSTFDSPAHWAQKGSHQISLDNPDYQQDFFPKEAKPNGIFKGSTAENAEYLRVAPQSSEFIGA
T5 sequence (P00533 with tags, fused parts or gaps INS770NPG): as above
T6 sequence (P00533 with tags, fused parts or gaps DUP767-769): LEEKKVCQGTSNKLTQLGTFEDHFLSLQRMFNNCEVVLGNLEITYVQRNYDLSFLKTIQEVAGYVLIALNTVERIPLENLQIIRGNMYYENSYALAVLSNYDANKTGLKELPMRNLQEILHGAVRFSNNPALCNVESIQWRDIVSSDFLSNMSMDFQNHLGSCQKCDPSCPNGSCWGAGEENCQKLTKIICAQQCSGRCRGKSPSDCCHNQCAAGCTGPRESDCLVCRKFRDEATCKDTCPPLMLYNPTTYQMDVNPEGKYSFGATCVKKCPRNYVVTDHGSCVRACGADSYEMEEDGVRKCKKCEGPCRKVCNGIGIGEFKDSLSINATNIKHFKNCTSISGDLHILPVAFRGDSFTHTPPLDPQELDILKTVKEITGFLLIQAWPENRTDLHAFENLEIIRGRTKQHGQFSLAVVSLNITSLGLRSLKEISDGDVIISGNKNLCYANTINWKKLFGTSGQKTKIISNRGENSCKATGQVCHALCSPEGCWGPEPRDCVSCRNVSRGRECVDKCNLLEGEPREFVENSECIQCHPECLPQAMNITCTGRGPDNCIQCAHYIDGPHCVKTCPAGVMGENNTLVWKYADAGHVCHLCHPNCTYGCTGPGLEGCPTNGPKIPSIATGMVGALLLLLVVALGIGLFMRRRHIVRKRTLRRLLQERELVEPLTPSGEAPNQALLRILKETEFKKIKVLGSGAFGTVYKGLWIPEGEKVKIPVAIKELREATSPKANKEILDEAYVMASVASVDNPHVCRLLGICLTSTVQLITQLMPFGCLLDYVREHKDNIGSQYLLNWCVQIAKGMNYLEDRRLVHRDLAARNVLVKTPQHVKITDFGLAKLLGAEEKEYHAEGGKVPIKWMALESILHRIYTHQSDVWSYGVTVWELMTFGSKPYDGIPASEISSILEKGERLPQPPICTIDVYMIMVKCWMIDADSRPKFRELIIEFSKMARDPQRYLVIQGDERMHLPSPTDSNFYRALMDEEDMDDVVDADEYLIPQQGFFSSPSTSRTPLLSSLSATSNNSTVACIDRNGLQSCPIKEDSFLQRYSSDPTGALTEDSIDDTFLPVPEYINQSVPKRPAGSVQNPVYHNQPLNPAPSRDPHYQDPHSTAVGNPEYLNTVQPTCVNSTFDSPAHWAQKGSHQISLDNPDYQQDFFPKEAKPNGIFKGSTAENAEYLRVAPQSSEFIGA

In the case of `COc1c(Cl)cccc1Nc1c(-c2ccncc2C#CC2(C)COC2)[nH]c2c1C(=O)NCC2` [compound 490], the IC50 (as a rule, the concentration that gives 50% inhibition) in test [1] is 100 to 1000 nM; at Ba/F3 cells with EGFR WT, more than 1000 nM; in test [2] it was less than 100 nM.

As to `COc1c(F)cccc1Nc1c(-c2ccncc2OCc2ccncn2)[nH]c2c1C(=O)NCC2` [Compound 478, 3-[(3-fluoro-2-methoxyphenyl)amino]-2-[3-(pyrimidin-4-ylmethoxy)pyridin-4-yl]-1H,5H,6H,7H-pyrrolo[3,2-c]pyridin-4-one], the IC50 in test [3] is less than 100 nM; in test [1], less than 100 nM; in test [4] it was less than 100 nM; at Ba/F3 cells with EGFR WT it was 100 to 1000 nM; in test [2] it was less than 100 nM.

Turning to `C=CC(=O)NC(C)(C)C#Cc1cnccc1-c1[nH]c2c(c1Nc1cccc(F)c1OC)C(=O)NCC2` [compound 258, N-[4-(4-{3-[(3-fluoro-2-methoxyphenyl)amino]-4-oxo-1H,5H,6H,7H-pyrrolo[3,2-c]pyridin-2-yl}pyridin-3-yl)-2-methylbut-3-yn-2-yl]prop-2-enamide], the IC50 (in test [3]; against pEGFR in CUTO14 cells) was less than 100 nM in each case.

Consider `COc1c(Cl)cccc1Nc1c(-c2ccncc2C#CC2CC2)[nH]c2c1C(=O)NCC2` [compound 488], for which the IC50 in test [1] was less than 100 nM; in test [4], less than 100 nM; at Ba/F3 cells with EGFR WT, 100 to 1000 nM; in test [2] it was less than 100 nM.

As to `COc1c(F)cccc1Nc1c(-c2ccncc2OCc2ncc(C)cn2)[nH]c2c1C(=O)NCC2` [Compound 477, 3-[(3-fluoro-2-methoxyphenyl)amino]-2-[3-[(5-methylpyrimidin-2-yl)methoxy]pyridin-4-yl]-1H,5H,6H,7H-pyrrolo[3,2-c]pyridin-4-one], the IC50 (in test [3]; in test [4]; on Ba/F3 cells with EGFR WT; in test [2]) was less than 100 nM throughout.

For the compound `COc1c(F)cccc1Nc1c(-c2ccncc2OCc2cccn3ccnc23)[nH]c2c1C(=O)NCC2` [Compound 475, 3-[(3-fluoro-2-methoxyphenyl)amino]-2-(3-[imidazo[1,2-a]pyridin-8-ylmethoxy]pyridin-4-yl)-1H,5H,6H,7H-pyrrolo[3,2-c]pyridin-4-one], the IC50 is less than 100 nM in test [3]; 100 to 1000 nM in test [1]; 100 to 1000 nM in test [4]; 100 to 1000 nM on Ba/F3 cells with EGFR WT; less than 100 nM in test [2].

Regarding `COc1c(F)cccc1Nc1c(-c2ccncc2OCc2csc3nccn23)[nH]c2c1C(=O)NCC2` [Compound 130, 3-[(3-fluoro-2-methoxyphenyl)amino]-2-(3-[imidazo[2,1-b][1,3]thiazol-3-ylmethoxy]pyridin-4-yl)-1H,5H,6H,7H-pyrrolo[3,2-c]pyridin-4-one], the IC50 (in test [1]; in test [4]; at Ba/F3 cells with EGFR WT; in test [2]) was more than 1000 nM throughout.

Turning to `C=CC(=O)N1CCC[C@]1(C)C#Cc1cnccc1-c1[nH]c2c(c1Nc1cccc(F)c1OC)C(=O)NCC2` [compound 245, 3-[(3-fluoro-2-methoxyphenyl)amino]-2-(3-{2-[(2R)-2-methyl-1-(prop-2-enoyl)pyrrolidin-2-yl]ethynyl}pyridin-4-yl)-1H,5H,6H,7H-pyrrolo[3,2-c]pyridin-4-one], the IC50 (in test [3]; against pEGFR in CUTO14 cells) was less than 100 nM throughout.

As for `C=C(F)C(=O)N1CC[C@@H]1COc1cnccc1-c1[nH]c2c(c1Nc1cccc(Cl)c1OC)C(=O)NCC2` [compound 226, 3-[(3-chloro-2-methoxyphenyl)amino]-2-(3-{[(2R)-1-(2-fluoroprop-2-enoyl)azetidin-2-yl]methoxy}pyridin-4-yl)-1H,5H,6H,7H-pyrrolo[3,2-c]pyridin-4-one], the IC50 is less than 100 nM in test [3], less than 100 nM in test [1], less than 100 nM in test [4] and 100 to 1000 nM on Ba/F3 cells with EGFR WT.

For the compound `COc1c(F)cccc1Nc1c(-c2ccncc2OCc2cn3ccccc3n2)[nH]c2c1C(=O)NCC2` [Compound 481, 3-[(3-fluoro-2-methoxyphenyl)amino]-2-(3-[imidazo[1,2-a]pyridin-2-ylmethoxy]pyridin-4-yl)-1H,5H,6H,7H-pyrrolo[3,2-c]pyridin-4-one], the IC50 in test [1] was less than 100 nM; in test [4], more than 1000 nM; on Ba/F3 cells with EGFR WT it was 100 to 1000 nM; in test [2], less than 100 nM.

For `COc1c(F)cccc1Nc1c(-c2ccncc2OCCc2ccco2)[nH]c2c1C(=O)NCC2` [Compound 483, 3-[(3-fluoro-2-methoxyphenyl)amino]-2-[3-[2-(furan-2-yl)ethoxy]pyridin-4-yl]-1H,5H,6H,7H-pyrrolo[3,2-c]pyridin-4-one], the IC50 in test [3] was less than 100 nM; in test [1] it was 100 to 1000 nM; in test [4], less than 100 nM; on Ba/F3 cells with EGFR WT it was 100 to 1000 nM; in test [2], less than 100 nM.

In the case of `COc1c(F)cccc1Nc1c(-c2ccncc2OCc2cnc3n2CCC3)[nH]c2c1C(=O)NCC2` [Compound 150, 2-(3-((6,7-dihydro-5H-pyrrolo[1,2-a]imidazol-3-yl)methoxy)pyridin-4-yl)-3-((3-fluoro-2-methoxyphenyl)amino)-1,5,6,7-tetrahydro-4H-pyrrolo[3,2-c]pyridin-4-one], the IC50 in test [1] is 100 to 1000 nM; in test [4], more than 1000 nM; at Ba/F3 cells with EGFR WT, more than 1000 nM; in test [2] it was less than 100 nM.

On to `C=CC(=O)N1CCC[C@@H]1COc1cnccc1-c1[nH]c2c(c1Nc1cccc(Cl)c1OC)C(=O)NCC2` [Compound 138a, 3-[(3-chloro-2-methoxyphenyl)amino]-2-(3-[[(2R)-1-(prop-2-enoyl)pyrrolidin-2-yl]methoxy]pyridin-4-yl)-1H,5H,6H,7H-pyrrolo[3,2-c]pyridin-4-one], for which the IC50 in test [3] is less than 100 nM; in test [1] it was less than 100 nM; in test [4], less than 100 nM; on Ba/F3 cells with EGFR WT, 100 to 1000 nM.

As to `COc1cccnc1COc1cnccc1-c1[nH]c2c(c1Nc1cccc(F)c1OC)C(=O)NCC2` [Compound 476, 3-[(3-fluoro-2-methoxyphenyl)amino]-2-[3-[(3-methoxypyridin-2-yl)methoxy]pyridin-4-yl]-1H,5H,6H,7H-pyrrolo[3,2-c]pyridin-4-one], the IC50 was less than 100 nM in test [3], less than 100 nM in test [1], less than 100 nM in test [4] and 100 to 1000 nM on Ba/F3 cells with EGFR WT.

For `C=CC(=O)NC(C)(C)C#Cc1cnccc1-c1[nH]c2c(c1Nc1cccc(Cl)c1OC)C(=O)NCC2` [compound 492, N-[4-(4-{3-[(3-chloro-2-methoxyphenyl)amino]-4-oxo-1H,5H,6H,7H-pyrrolo[3,2-c]pyridin-2-yl}pyridin-3-yl)-2-methylbut-3-yn-2-yl]prop-2-enamide], the IC50 (in test [3]; against pEGFR in CUTO14 cells) was less than 100 nM throughout.

Regarding `COc1c(Cl)cccc1Nc1c(-c2ccncc2OC[C@H]2CCCN2S(C)(=O)=O)[nH]c2c1C(=O)NCC2` [Compound 142b, 3-[(3-chloro-2-methoxyphenyl)amino]-2-(3-[[(2R)-1-methanesulfonylpyrrolidin-2-yl]methoxy]pyridin-4-yl)-1H,5H,6H,7H-pyrrolo[3,2-c]pyridin-4-one], the 50% inhibitory concentration (IC50) in test [3] is less than 100 nM; in test [1], less than 100 nM; in test [4], less than 100 nM; at Ba/F3 cells with EGFR WT, 100 to 1000 nM.

For the compound `COc1c(F)cccc1Nc1c(-c2ccncc2OCc2ccnn2C)[nH]c2c1C(=O)NCC2` [Compound 480, 3-[(3-fluoro-2-methoxyphenyl)amino]-2-[3-[(2-methylpyrazol-3-yl)methoxy]pyridin-4-yl]-1H,5H,6H,7H-pyrrolo[3,2-c]pyridin-4-one], the IC50 was less than 100 nM in test [3]; more than 1000 nM in test [1]; more than 1000 nM in test [4]; more than 1000 nM on Ba/F3 cells with EGFR WT; 100 to 1000 nM in test [2].

Take `COc1c(F)cccc1Nc1c(-c2ccncc2OCc2ncco2)[nH]c2c1C(=O)NCC2` [Compound 474, 3-[(3-fluoro-2-methoxyphenyl)amino]-2-[3-(1,3-oxazol-2-ylmethoxy)pyridin-4-yl]-1H,5H,6H,7H-pyrrolo[3,2-c]pyridin-4-one]: the 50% inhibitory concentration (IC50) in test [1] is 100 to 1000 nM; in test [4], more than 1000 nM; on Ba/F3 cells with EGFR WT, 100 to 1000 nM; in test [2] it was less than 100 nM.

`CC#CC(=O)N1CC[C@@H]1COc1cnccc1-c1[nH]c2c(c1Nc1cccc(Cl)c1OC)C(=O)NCC2` [compound 227]: the half-maximal inhibitory concentration (IC50) in test [3] was less than 100 nM; in test [1] it was less than 100 nM; at pEGFR in CUTO14 cells it was less than 100 nM; in test [4], less than 100 nM; on Ba/F3 cells with EGFR WT it was 100 to 1000 nM.
